ChEMBL document CHEMBL3244041, “Synthesis and structure-activity relationships of 5H,11 H-[I]benzopyrano[4,3-g]benzopyran-9-carboxylic acids” (1977)

Columns and labels:
Rattus norvegicus [1] = experiment: Antiallergic activity in adrenalectomized Sprague-Dawley rat assessed as inhibition of ovalbumin-induced passive cutaneous anaphylaxis reaction at 1 mg/kg, iv after 12 days by Evans blue staining; type: functional; details: 288 h
Rattus norvegicus [2] = experiment: Antiallergic activity in iv dosed adrenalectomized Sprague-Dawley rat assessed as inhibition of ovalbumin-induced passive cutaneous anaphylaxis reaction after 12 days by Evans blue staining; type: functional; details: 288 h

Row | SMILES | inhibition in vivo at 1 mg/kg (Rattus norvegicus [1]) [%] | ED50 (Rattus norvegicus [2]) [mg/kg]
1 | O=C([O-])c1cc(=O)c2c(OCC(O)COc3cccc4oc(C(=O)[O-])cc(=O)c34)cccc2o1.[Na+].[Na+] [CROMOLYN SODIUM] | 26.7 | 2.88
2 | CC1(C)Oc2cc3oc(C(=O)O)cc(=O)c3cc2-c2ccc(N)cc21 | 77.8 | 
3 | COc1cc2c(cc1Br)-c1cc3c(=O)cc(C(=O)O)oc3cc1OC2(C)C | 0 | 
4 | COc1cccc2c1COc1cc3oc(C(=O)O)cc(=O)c3cc1-2 | 0 | 
5 | COc1cc2c(cc1OC)C(C)(C)Oc1cc3oc(C(=O)O)cc(=O)c3cc1-2 | 67.7 | 
6 | Cc1c2c(cc3oc(C(=O)O)cc(=O)c13)OC(C)(C)c1ccccc1-2 | 0 | 
7 | CC1(C)Oc2c(cc3c(=O)cc(C(=O)O)oc3c2N)-c2ccccc21 | 64.3 | 
8 | CC1(C)Oc2cc3oc(C(=O)[O-])cc(=O)c3cc2-c2ccc(O)cc21.[Na+] | 77.8 | 0.3
9 | CC1(C)Oc2c(cc3c(=O)cc(C(=O)O)oc3c2Cl)-c2ccccc21 | 66.7 | 
10 | O=C([O-])c1cc(=O)c2cc3c(cc2o1)OCc1ccccc1-3.[Na+] | 64.3 | 0.3
11 | CC1(C)Oc2cc3oc(C(=O)O)cc(=O)c3c(O)c2-c2ccccc21 | 0 | 
12 | CCCOc1ccc2c(c1)C(C)(C)Oc1cc3oc(C(=O)O)cc(=O)c3cc1-2 | 40 | 
13 | COc1ccc2c(c1)C(C)(C)Oc1cc3oc(C(=O)O)cc(=O)c3cc1-2 | 66.7 | 
14 | O=C(O)c1cc(=O)c2cc3c(c(O)c2o1)OCc1ccccc1-3 | 33.4 | 
15 | CC1(C)Oc2c(cc3c(=O)cc(C(=O)O)oc3c2[N+](=O)[O-])-c2ccccc21 | 20 | 
16 | CC(=O)Oc1ccc2c(c1)C(C)(C)Oc1cc3oc(C(=O)O)cc(=O)c3cc1-2 | 73.4 | 
17 | NCCO.O=C(O)c1cc(=O)c2cc3c(oc(=O)c4ccccc43)c(O)c2o1 | 55.6 | 2
18 | CCCCC1(CCCC)Oc2cc3oc(C(=O)O)cc(=O)c3cc2-c2ccccc21 | 25 | 
19 | CC1(C)Oc2cc3oc(C(=O)O)cc(=O)c3cc2-c2cc(Cl)ccc21 | 25 | 
20 | CC1(C)Oc2cc3oc(C(=O)O)cc(=O)c3cc2-c2ccc([N+](=O)[O-])cc21 | 50 | 
21 | COc1c2c(cc3c(=O)cc(C(=O)O)oc13)-c1ccccc1CO2 | 50 | 
22 | CC1(C)Oc2cc3oc(C(=O)O)cc(=O)c3cc2-c2ccc(S(=O)(=O)O)cc21 | 0 | 
23 | CC1(C)Oc2cc3oc(C(=O)O)cc(=O)c3cc2-c2ccc(OCCO)cc21.NCCO | 82.8 | 0.11
24 | CC1(C)Oc2cc3oc(C(=O)O)cc(=O)c3cc2-c2ccccc21.NCCO | 70.3 | 0.5
25 | CC1(C)Oc2cc3oc(C(=O)O)cc(=O)c3cc2-c2ccc(Cl)cc21 | 60 | 
26 | CC1(C)Oc2cc3oc(C(=O)O)cc(=O)c3cc2-c2ccc(F)cc21.NCCO | 60 | 0.87
